Source: patent US20110144213A1, “ANHYDROUS DEPIGMENTING COMPOSITIONS COMPRISING A SOLUBILIZED PHENOLIC COMPOUND” (priority 2008, published 2011)
Where two headings read alike, the source gives them in different places.

Experiments:
[1] = cited from earlier work
[2] = Stability of the active agents in solvent oils and lipophilic surfactants (HPLC assay against reference substance, colour); format: physicochemical; details: for Colour: 40° C.
Excerpt: Stability of Hydroquinone in Solvent Oils and Lipophilic Surfactants
Assay technique by HPLC against reference substance.
The initial time (T0) is considered as 100%
The above table makes it possible to evaluate the stability of hydroquinone in the various solubilizing agents identified previously.
Stability of Rucinol in Solvent Oils and Lipophlic Surfactants
The initial time (T0) is considered as 100%.
The table below makes it possible to evaluate the stability of rucinol in the solubilizing agents identified previously.

[3] = Max. solubility of the active agents in solvent oils, lipophilic surfactants and alcoholic or glycolic solvents (HPLC); format: physicochemical; details: rucinol in all the solvents tested
Excerpt: a) Solubilities and Stabilities of Hydroquinone in Solvent Oils and Lipophilic Surfactants Hydroquinone Solubilities
The above table makes it possible to identify which solvents are the most solubilizing for the active agent, for optimum selection of the ingredients of the composition. However, the choice of solvent will also be made on the basis of the results of the stability of hydroquinone in these solvents. […]
b) Solubilities and Stabilities of Rucinol in Solvent Oils and Lipophilic Surfactants […]
However, the optimum choice of solvent will also be made on the basis of the results of the stability of rucinol in these solvents.

Compound: Oc1ccc(O)cc1 [Hydroquinone, hydroquinone]
- incidence of the irritation ([1]; 10% hydroquinone concentrations): relatively high
- incidence of the irritation ([1]; concentration of 2%): virtually nonexistent
- incidence of the irritation ([1]; preparations with a 5% dose): reduces greatly
- Colour ([2]; hydroquinone in Ethanol/water (20/80), 1 MONTH): Dark
- Colour ([2]; hydroquinone in Glycerol, 1 MONTH): Dark
- Colour ([2]; hydroquinone in Propylene glycol, 3 MONTHS): Dark
- stability of hydroquinone (in words) ([2]; in Cremophor EL, browning that becomes pronounced over time and with temperature): macroscopic instability
- stability of hydroquinone (in words) ([2]; in Crodamol DA, Arlamol E and Labrasol, macroscopic observation of the colour): good chemical and physical stability
- stability of hydroquinone (in words) ([2]; in solvents of the prior art such as glycols, RT and 40° C., absence of antioxidants): a colouration is observed

Compound: CCCCc1ccc(O)cc1O [Rucinol, 4-butylresorcinol]
- solubility (in words) [3]: very good solubility
